Measured values taken from patent publication US20260130395A1, “Water Dispersible Botanical Compositions” (Aquila Black Limited, priority 2021, published 2026).

Test: Stability of cannabinoid compounds and Vitamin E components in Beverage 2 (AB Red) by LCMSMS
Format: physicochemical

In the case of CCCCCc1cc(O)c2c(c1)OC(C)(C)c1ccc(C)cc1-2 [CBN, cannabinol], the “Stability of Plant-Derived Cannabinoid Compounds in AB Red” value (from here on “Stability”) (stored at 8° C., 29 days) is reported as 2.77 µg/mL, the “Stability” value (stored at 8° C., 30 days) is reported as 2.77 µg/mL and the “Stability” value (stored at 8° C., 60 days) is reported as 2.73 µg/mL. The “Stability” value (stored at 8° C., 90 days) was 2.80 µg/mL, the “Stability” value (stored at 8° C., 120 days) was 2.69 µg/mL and the “Stability” value (stored at 8° C., 150 days) was 2.69 µg/mL. The “Stability” value (stored at 8° C., 180 days) was 2.74 µg/mL, the “Stability” value (stored at 8° C., 210 days) was 2.69 µg/mL and the “Stability” value (stored at 8° C., 240 days) was 2.74 µg/mL. For the same compound, the “Stability” value (stored at 8° C., 270 days) was 2.76 µg/mL, the “Stability” value (stored at 8° C., 300 days) was 2.75 µg/mL and the “Stability” value (stored at 8° C., 330 days) was 2.71 µg/mL. For the same compound, the “Stability” value (stored at 8° C., 360 days) was 2.69 µg/mL, the “Stability” value (stored at 8° C., 390 days) was 2.72 µg/mL and the “Stability” value (stored at 8° C., 420 days) was 2.69 µg/mL. For the same compound, the “Stability” value (stored at 8° C., 450 days) was 2.71 µg/mL, the “Stability” value (stored at 8° C., 480 days) was 2.66 µg/mL and the “Stability” value (stored at 8° C., 510 days) was 2.62 µg/mL. For the same compound, the “Stability” value (stored at 8° C., 540 days) was 2.60 µg/mL, the “Stability” value (stored at 8° C., 570 days) was 2.58 µg/mL and the “Stability” value (stored at 21-25° C., 0 days) was 2.81 µg/mL. For the same compound, the “Stability” value (stored at 21-25° C., 1 days) was 2.73 µg/mL, the “Stability” value (stored at 21-25° C., 2 days) was 2.83 µg/mL and the “Stability” value (stored at 21-25° C., 3 days) was 2.78 µg/mL. The “Stability” value (stored at 21-25° C., 5 days) was 2.71 µg/mL, the “Stability” value (stored at 21-25° C., 8 days) was 2.74 µg/mL and the “Stability” value (stored at 21-25° C., 9 days) was 2.72 µg/mL. For the same compound, the “Stability” value (stored at 21-25° C., 10 days) was 2.73 µg/mL, the “Stability” value (stored at 21-25° C., 11 days) was 2.83 µg/mL and the “Stability” value (stored at 21-25° C., 12 days) was 2.70 µg/mL. The “Stability” value (stored at 21-25° C., 15 days) was 2.77 µg/mL, the “Stability” value (stored at 21-25° C., 16 days) was 2.81 µg/mL and the “Stability” value (stored at 21-25° C., 17 days) was 2.74 µg/mL. The “Stability” value (stored at 21-25° C., 18 days) was 2.80 µg/mL, the “Stability” value (stored at 21-25° C., 19 days) was 2.70 µg/mL and the “Stability” value (stored at 21-25° C., 22 days) was 2.70 µg/mL. For the same compound, the “Stability” value (stored at 21-25° C., 23 days) was 2.82 µg/mL, the “Stability” value (stored at 21-25° C., 24 days) was 2.78 µg/mL and the “Stability” value (stored at 21-25° C., 25 days) was 2.84 µg/mL. For the same compound, the “Stability” value (stored at 21-25° C., 26 days) was 2.70 µg/mL, the “Stability” value (stored at 21-25° C., 29 days) was 2.78 µg/mL and the “Stability” value (stored at 21-25° C., 30 days) was 2.77 µg/mL. The “Stability” value (stored at 21-25° C., 60 days) was 2.78 µg/mL, the “Stability” value (stored at 21-25° C., 90 days) was 2.75 µg/mL and the “Stability” value (stored at 21-25° C., 120 days) was 2.77 µg/mL. The “Stability” value (stored at 21-25° C., 150 days) was 2.75 µg/mL, the “Stability” value (stored at 21-25° C., 180 days) was 2.70 µg/mL and the “Stability” value (stored at 21-25° C., 210 days) was 2.70 µg/mL. The “Stability” value (stored at 21-25° C., 240 days) was 2.73 µg/mL, the “Stability” value (stored at 21-25° C., 270 days) was 2.73 µg/mL and the “Stability” value (stored at 21-25° C., 300 days) was 2.70 µg/mL. For the same compound, the “Stability” value (stored at 21-25° C., 330 days) was 2.75 µg/mL, the “Stability” value (stored at 21-25° C., 360 days) was 2.72 µg/mL and the “Stability” value (stored at 21-25° C., 390 days) was 2.65 µg/mL. The “Stability” value (stored at 21-25° C., 420 days) was 2.64 µg/mL, the “Stability” value (stored at 21-25° C., 450 days) was 2.68 µg/mL and the “Stability” value (stored at 21-25° C., 480 days) was 2.58 µg/mL. The “Stability” value (stored at 21-25° C., 510 days) was 2.66 µg/mL, the “Stability” value (stored at 21-25° C., 540 days) was 2.65 µg/mL and the “Stability” value (stored at 21-25° C., 570 days) was 2.58 µg/mL.
